From patent US20240216369A1, “THE USE OF A SPLICING MODULATOR FOR A TREATMENT SLOWING PROGRESSION OF HUNTINGTON'S DISEASE” (Novartis AG, priority 2019, published 2024)

Columns and labels:
[1] = Pediatric ACAT/PBPK model (Type 1 SMA patients); parameters: species or system human; details: Type 1 SMA patients 33-39 months; optimized on observed data
Source text: The pharmacokinetic (PK) model in adult subjects was developed using an Advanced Compartmental And Transit (ACAT)/Physiologically Based Pharmacokinetic (PBPK) model in GastroPlus™ software, Version 9.6 (SimulationPlus, Lancaster, CA, USA).
• Principle set-up of a pediatric ACAT/PBPK model in GastroPlus™ software including physico-chemical parameters, physiological parameters, and formulation factors. The ACAT model was linked to a full PBPK model in which tissue-to-plasma concentration ratios were estimated via in silico method provided by GastroPlus™ software. • Estimation of the clearance (CL) using plasma concentrations of branaplam from an open-label multi-part first-in-human proof of concept study of oral branaplam, Part 1 only. The aim of Part 1 of this study was to determine the safety and tolerability of ascending weekly doses and to estimate the maximum tolerated dose (MTD) of oral/enteral branaplam (formulation described in Example 3) in infants with Type 1 SMA. All patients had exactly 2 copies of the SMN2 gene. Patients were dosed once weekly with branaplam. The branaplam doses were escalated in subsequent cohorts until MTD was determined or when PK results confirmed that the MTD could not be reached due to a potential pharmacokinetic exposure plateau at higher doses. The starting dose referring to the free base was 6 mg/m^2 (equal to 0.3125 mg/kg). Subsequent doses were 12 mg/m^2, 24 mg/m^2, 48 mg/m^2 and 60 mg/m^2 (0.625 mg/kg, 1.25 mg/kg, 2.5 mg/kg and 3.125 mg/kg, respectively). 14 patients were enrolled in Part 1; 13 patients were exposed to branaplam. The duration of exposure ranged from 4-33 months, 7 patients remain in the study. Six of the 7 patients are receiving 60 mg/m^2, 1 patient is receiving 48 mg/m^2.
Observed plasma concentrations of branaplam in 33-39 months old Type 1 SMA patients after nominal branaplam doses of 60 mg/m^2 (3.125 mg/kg, first-in-human proof of concept study with branaplam as described above) were used to build the pediatric ACAT/PBPK by means of GastroPlus™ software. […]

[2] = tested on: Huntingtin protein; experiment: In vitro evaluation in SH-SY5Y cells: Huntingtin protein by Western blot; format: cell-based, human; details: 48 hours
Method: Cultured human neuroblastoma (SH-SY5Y cell line) cells were treated at doses ranging from 5 nM-125 nM for 24 hours (for transcript evaluation) or 48 hours (for protein evaluation). RNA was quantified by Nanodrop 2000 (Thermo Scientific). cDNAs were synthesized from 140-400 ng RNA using Maxima First strand cDNA synthesis kit using a mix of oligo dT and random hexamers (Thermo Scientific) in 20 uL reaction at 25° C. for 10 min, 50° C. for 15 min then 85° C. for 5 min. Quantitative PCR was performed using Taqman Fast Advanced master mix (Thermo Scientific) in 20 uL with 4 uL of cDNA reaction and primers specific for each genes. The PCR steps were as follows: 95° C. for 20 sec then 40 cycles of 95° C. for 1 sec, 55° C. for 20 sec. […] Relative quantification of gene expression was performed using 2-AACT method. Fold changes in the mRNA expression level was calculated following normalization to […] glucuronidase beta (Gusb) as an endogenous reference (FIGS. 2a and 2b).
For protein analysis, cells were lysed in RIPA buffer with protease and phosphatase inhibitor (Thermo Scientific). […] Total protein concentration was quantified using the BCA protein Assay (Thermo Scientific). […] Protein bands were quantified by Image J.

Compound: CC1(C)CC(Oc2ccc(-c3ccc(-c4cn[nH]c4)cc3O)nn2)CC(C)(C)N1 [Compound 18, 5-(1H-pyrazol-4-yl)-2-(6-((2,2,6,6-tetramethylpiperidin-4-yl)oxy)pyridazin-3-yl)phenol]
- Vc [1]: 3.62 (Optimized value using GastroPlus ™ based on the 1/h
- k12 [1]: 1.41 (Optimized value using GastroPlus ™ based on the 1/h
- k21 [1]: 0.144 (Optimized value using GastroPlus ™ based on the 1/h
- reduction of normal Huntingtin protein ([2]; 5 nM-125 nM, Western blot): 50-70%
- EC50 ([2]; read-out: EC50 for HTT protein lowering): 0.01 to 0.025 µM
